Assay results published in patent US20020168658A1, “Amplification of nucleic acids” (YALE UNIVERSITY, priority 1995, published 2002).

Columns and labels:
MHCcln1 template = test: Amplification using two enzyme mixture Klentaq LA16 with additives; format: biochemical; conditions: 2.2 M betaine or 10% DMSO, FIG. 1A lanes 5-6
Experimental: (§1) Each of the G+C-rich templates is set up in an amplification reaction using a two enzyme mixture, with and without the addition of betaine (0.5 to 2.5 M), DMSO (5-10%), formnamide (5-10%), glycerol (5-10%), TMACl (0.1 mM to 1 M), and tetramethylammonium acetate (TMAA) (0.1 mM-1.0 M).
The amplification reaction (50 μl) is performed in 20 mM Tris-HCl, pH 9.0 at 25° C., containing 150 μg/ml of bovine serum albumin, 16 mM ammonium sulfate, 2.5 mM magnesium chloride, 200 μM of each dNTP, 50 ng each of the M13 forward primer and the M13 reverse primer, 0.5-1.0 ng of plasmid templates and 0.2-0.4 μl of Klentaq LA16 (a 1:15 v/v ratio of Klentaq1 (Ab Peptides Inc., St. Louis, Mo.), which is Taq DNA polymerase lacking the 5′ to 3′ exonuclease activity, and Pfu DNA polymerase (Stratagene, LaJolla, Calif.); the long and accurate (LA) system described in Barnes, Proc. Natl. Acad. Sci. USA 91:2216, 1994). DMSO, TMACl, TMAA, betaine, or the combination of DMSO and betaine is added to aliquots of the same mixture without dNTPs and overlaid with mineral oil. Amplification is performed in a thermocycler instrument using thin-walled tubes (0.5 ml). The tubes are heated at 95° C. for 15 seconds and amplification is initiated by the addition of dNTPs at 80° C. […]

OCT1 template = test: as above; format: biochemical, human; conditions: for amplification of OCT1: 2.2 M betaine or 10% DMSO, FIG. 1A lanes 1-2; for effect on amplification of OCT1: at 0.1-1.0 M
Experimental: as §1
(§2) The amplification reaction (50 μl) is performed in 20 mM Tris-HCl, pH 9.0 at 25° C., containing 150 μg/ml of bovine serum albumin, 16 mM ammonium sulfate, 2.5 mM magnesium chloride, 200 μM of each dNTP, 50 ng each of the M13 forward primer and the M13 reverse primer, 0.5-1.0 ng of plasmid templates and 0.2-0.4 μl of Klentaq LA16 (a 1:15 v/v ratio of Klentaq1 (Ab Peptides Inc., St. Louis, Mo.), which is Taq DNA polymerase lacking the 5′ to 3′ exonuclease activity, and Pfu DNA polymerase (Stratagene, LaJolla, Calif.); the long and accurate (LA) system described in Barnes, Proc. Natl. Acad. Sci. USA 91:2216, 1994). DMSO, TMACl, TMAA, betaine, or the combination of DMSO and betaine is added to aliquots of the same mixture without dNTPs and overlaid with mineral oil. Amplification is performed in a thermocycler instrument using thin-walled tubes (0.5 ml). The tubes are heated at 95° C. for 15 seconds and amplification is initiated by the addition of dNTPs at 80° C. The following cycling conditions are used for 25 cycles: denaturation at 94° C. for 15 seconds, annealing at 50 to 55° C. for 1 minute, and extension at 68° C. for 5 minutes. Following amplification, 10 μl of the resulting product is loaded onto a 1% agarose gel (see Molecular Cloning: A Laboratory Manual by J. Sambrook et al., Cold Spring Harbor, 1989). The amplified DNA is stained with ethidium bromide and the gel is photographed while UV-irradiated by a transilluminator.

[1] = test system: OCT-T1 template (80% G+C); test: as above; format: biochemical, human; conditions: for amplification of OCT-T1: Klentaq LA16, 2.2 M betaine or 10% DMSO, FIG. 1A lanes 7-8; for OCT-T1 amplification: salt >0.15 M
Experimental: as §1, §2
(§3) Various analogues of betaine and two tetraalkylammonium salts are used to amplify OCT-T1 or TFR templates. Amplification reactions are performed as above in the presence of either 2 M analogue or at least 0.15 M salt.

TFR template (44% G+C) = test: as above; format: biochemical, human; conditions: for amplification of TFR: Klentaq LA16, 2.2 M betaine or 10% DMSO, FIG. 1A lanes 3-4; for TFR amplification: salt >0.15 M
Experimental: as §1, §2, §3

[2] = test system: MHCcln1 template (64% G+C); test: Amplification using AmpliTaq DNA polymerase under standard conditions with additives; format: biochemical; conditions: DMSO 10% v/v, betaine up to 2.5 M, glycerol 10% v/v, formamide 10% v/v, TMACl 0.1 mM to 1.0 M
Description: (§4) A number of test DNAs are utilized in amplification reactions. Four of the test fragments are:
(ii) a 1.6 kb fragment from the MHC region, MHCclnl, which has a 64% G+C content (see Shukla et al., Nucleic Acids Res. 19:4233, 1991; GenBank Accession No. L20433; SEQ ID No. 3, which presents nucleotides 320 to 850 of L20433);
(§5) Thus, the sizes of the amplified fragments for each of these four templates, with the exception of MHCcln1, include 200 bp of multiple cloning sites of pBluescript vector.
(§6) (See Science 239:487, 1988).

[3] = test system: mixture of the 4 templates, OCT1, OCT-T1, TFR and MHCcln1; test: Amplification of a mixture of the four templates using Klentaq LA16, varying DMSO and/or betaine; format: biochemical; conditions: for uniformity of amplification of the four templates: DMSO (5%, 10%) or betaine (1.1 M, 2.2 M) alone, FIG. 1B lanes 9-12
Experimental: as §2
Amplification is also performed on a mixture of the four templates, varying the concentrations of DMSO and/or betaine. […] Thus, by adding both DMSO and betaine, preferably within a range of 1.0 M betaine with 6-8% DMSO or 5% DMSO with 1.2-1.8 M betaine, all four templates are amplified.

[4] = test system: OCT-T1 template (80% G+C); test: Amplification using AmpliTaq DNA polymerase under standard conditions with additives; format: biochemical, human; conditions: DMSO 10% v/v, betaine up to 2.5 M, glycerol 10% v/v, formamide 10% v/v, TMACl 0.1 mM to 1.0 M
Description: as §4
(iii) a 0.8 kb fragment of human OCT-T1 cDNA, which encodes a transcription factor expressed in T lymphocytes that binds the octamer sequence, and which has an 80% G+C content (see Bhargava et al., Proc. Natl. Acad. Sci. USA 91:10260, 1993; SEQ ID NO. 4); and
As each of these fragments are cloned in pBluescript or a pUC plasmid (MHCcln1), primers for amplification of these fragments are the M13 forward primer ([…]; SEQ. ID No. 1) and the M13 reverse primer ([…]; SEQ ID No. 2). Thus, the sizes of the amplified fragments for each of these four templates, with the exception of MHCcln1, include 200 bp of multiple cloning sites of pBluescript vector.
The two G+C-rich templates are unsuccessfully amplified (MHCcln1 and OCT-T1) using AmpliTaq® DNA polymerase (Perkin-Elmer Cetus) under standard conditions. (See Science 239:487, 1988). […] In addition, betaine (>1.0 M), formamide (>5%), and TMACl (>100 mM) are inhibitory for amplification of the non-G+C-rich template OCT1.

OCT1 template (52% G+C) = test: as above; format: biochemical, human
Description: as §4
(i) a 2.7 kb cDNA encoding the octamer binding protein, OCT1 GenBank accession No. X13403; Sturm et al., Genes & Dev. 2:1582, 1988; SEQ ID No. 8), which has a 52% G+C content;
as §5, §6

[5] = higher concentration of DMSO (12-15%) or betaine (1.8-2.5 M)

C[S+](C)[O-] [DMSO, dimethyl sulfoxide]
amplification of MHCcln1 (MHCcln1 template): could be amplified | amplification of OCT1 (OCT1 template): could be amplified | amplification of OCT-T1 [1]: could be amplified | amplification of TFR (TFR template (44% G+C)): could be amplified | visible amplification of MHCcln1 [2]: did not result in visible amplification | uniformity of amplification of the four templates [3]: not amplified uniformly | amplification of all four templates [3, 5]: variable amplification | visible amplification of OCT-T1 [4]: did not result in visible amplification

OCC(O)CO [glycerol]
visible amplification of MHCcln1 [2]: did not result in visible amplification | visible amplification of OCT-T1 [4]: did not result in visible amplification

C[N+](C)(C)CC(=O)O [Glycine betaine]
amplification of MHCcln1 (MHCcln1 template): could be amplified | amplification of OCT1 (OCT1 template): could be amplified | amplification of OCT-T1 [1]: could be amplified | amplification of TFR (TFR template (44% G+C)): could be amplified | effect on amplification of the non-G+C-rich template OCT1 (OCT1 template (52% G+C); betaine >1.0 M): inhibitory | visible amplification of MHCcln1 [2]: did not result in visible amplification | amplification of all four templates ([3]; 2.2 M betaine (lane 12)): amplified to a varying extent | uniformity of amplification of the four templates [3]: not amplified uniformly | amplification of all four templates [3, 5]: variable amplification | visible amplification of OCT-T1 [4]: did not result in visible amplification

CC(=O)[O-].C[N+](C)(C)C [TMAA, tetramethylammonium acetate]
effect on amplification of OCT1 (OCT1 template): inhibit amplification | OCT-T1 amplification [1]: unable to facilitate amplification | TFR amplification (TFR template (44% G+C)): unable to facilitate amplification

NC=O [formamide]
effect on amplification of the non-G+C-rich template OCT1 (OCT1 template (52% G+C); formamide >5%): inhibitory | visible amplification of MHCcln1 [2]: did not result in visible amplification | visible amplification of OCT-T1 [4]: did not result in visible amplification

C[N+](C)(C)C.[Cl-] [TMAC, tetramethylammonium chloride]
effect on amplification of OCT1 (OCT1 template): inhibit amplification | OCT-T1 amplification [1]: unable to facilitate amplification | TFR amplification (TFR template (44% G+C)): unable to facilitate amplification | effect on amplification of the non-G+C-rich template OCT1 (OCT1 template (52% G+C); TMACl >100 mM): inhibitory | visible amplification of MHCcln1 [2]: did not result in visible amplification | visible amplification of OCT-T1 [4]: did not result in visible amplification
